Tests used:
Type in all cases: ADME, organism-based
Conditions in all cases: in vivo
[1] = Drug metabolism in ip dosed Wistar rat assessed as 3'-O-methyl derivative level in urine up to 96 hrs by GC-MS analysis
[2] = Drug metabolism in ip dosed Wistar rat assessed as 5-(4'-fluorophenyl)-5-(4'-hydroxyphenyl)hydantoin level in urine up to 96 hrs by GC-MS analysis
[3] = Drug metabolism in ip dosed Wistar rat assessed as (R,S)-5-(3',4'-dimethoxyphenyl)-5-(4'-fluorophenyl)hydantoin level in urine up to 96 hrs by GC-MS analysis
[4] = Drug metabolism in ip dosed Wistar rat assessed as 5-(3',4'-dihydroxyphenyl)-5-(4'-fluorophenyl)hydantoin level in urine up to 96 hrs by GC-MS analysis
[5] = Drug metabolism in ip dosed Wistar rat assessed as […] level in urine up to 96 hrs by GC-MS analysis
[6] = Drug metabolism in ip dosed Wistar rat assessed as (R)-(-)-5-(4'-fluorphenyl)-5-(4'-hydroxyphenyl)hydantoin level in urine up to 96 hrs by TLC analysis

Measured: Drug metabolism

O=C1NC(=O)C(c2ccccc2)(c2ccc(F)cc2)N1 (stereo unspecified)
not listed: [6]
metabolite_detected: all other assays above

O=C1NC(=O)C(c2ccc(O)cc2)(c2ccc(F)cc2)N1 (racemic)
metabolite_detected: [6]

O=C1[N-]C(=O)C(c2ccccc2)(c2ccc(F)cc2)N1.[Na+] (racemic)
not listed: [6]
metabolite_detected: all other assays above
